In patent publication US7138361B2, “Herbicidal heterocycles” (E. I. du Pont de Nemours and Company, priority 2000, dated 2006):

Assays:
Format in all cases: in vivo
[1] = test system: crabgrass (Digitaria sanguinalis); test: Test C postemergence
Text: (§1) Seeds of plant species selected from bermudagrass (Cynodon dactylon), Surinam grass (Brachiaria decumbens), cocklebur (Xanthium strumarium), corn (Zea mays), crabgrass (Digitaria sanguinalis), woolly cupgrass (Eriochloa villosa), giant foxtail (Setaria faberii), goosegrass (Eleusine indica), johnsongrass (Sorghum halepense), kochia (Kochia scoparia), lambsquarters (Chenopodium album), morningglory (Ipomoea hederacea), yellow nutsedge (Cyperus esculentus), pigweed (Amaranthus retroflexus), common ragweed (Ambrosia elatior), soybean (Glycine max) and velvetleaf (Abutilon theophrasti) were planted and treated preemergence with test chemicals formulated in a non-phytotoxic solvent mixture which included a surfactant.
(§2) At the same time, plants selected from these crop and weed species and also winter barley (Hordeum vulgare), blackgrass (Alopecurus myosuroides), canary grass (Phalaris minor), chickweed (Stellaria media), downy brome (Bromus tectorum), green foxtail (Setaria viridis), Italian ryegrass (Lolium multiflorum), wheat (Triticum aestivum), wild oat (Avena fatua) and windgrass (Apera spica-venti) were treated with postemergence applications of some of the test chemicals formulated in the same manner. Plants ranged in height from 2 to 18 cm (1- to 4-leaf stage) for postemergence treatments. Plant species in the flooded paddy test consisted of rice (Oryza saliva), smallflower flatsedge (Cyperus difformis), duck salad (Heteranthera limosa) and barnyardgrass (Echinochloa crus-galli) grown to the 2-leaf stage for testing. Treated plants and controls were maintained in a greenhouse for 12 to 14 days, after which time all species were compared to controls and visually evaluated. Plant response ratings, summarized in Table C, are based on a scale of 0 to 100 where 0 is no effect and 100 is complete control. A dash (-) response means no test result.

[2] = test system: pigweed (Amaranthus retroflexus); test: Test C postemergence
Text: as §1, §2

[3] = test system: yellow nutsedge (Cyperus esculentus); test: Test C postemergence
Text: as §1, §2

[4] = test system: morningglory (Ipomoea hederacea); test: Test C postemergence
Text: as §1, §2

[5] = test system: common ragweed (Ambrosia elatior); test: Test C postemergence
Text: as §1, §2

kochia (Kochia scoparia) = test: Test C postemergence
Text: as §1, §2

soybean (Glycine max) = test: Test C postemergence
Text: as §1, §2

[6] = test system: goosegrass (Eleusine indica); test: Test C postemergence
Text: as §1, §2

[7] = test system: cocklebur (Xanthium strumarium); test: Test C postemergence
Text: as §1, §2

corn (Zea mays) = test: Test C postemergence
Text: as §1, §2

[8] = test system: johnsongrass (Sorghum halepense); test: Test C postemergence
Text: as §1, §2

[9] = test system: velvetleaf (Abutilon theophrasti); test: Test C postemergence
Text: as §1, §2

[10] = test system: lambsquarters (Chenopodium album); test: Test C postemergence
Text: as §1, §2

[11] = test system: giant foxtail (Setaria faberii); test: Test C postemergence
Text: as §1, §2

[12] = test system: bermudagrass (Cynodon dactylon); test: Test C postemergence
Text: as §1, §2

rice (Oryza saliva) = test: Test C flooded paddy test; conditions: for Rice plant response rating: Flooded Paddy, scale 0 to 100, 0 no effect, 100 complete control; for Plant response rating, Rice: flooded paddy test, scale 0 to 100 (0 no effect, 100 complete control)
Procedure, shortened: (§3)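 Ratings come from visual comparison with control plants after 12 to 14 days in the greenhouse. Each species was at the 2-leaf stage when the flooded paddy was treated. Scores run from 0, meaning no effect, to 100, meaning complete control.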

[13] = test system: duck salad (Heteranthera limosa); test: Test C flooded paddy test; conditions: for Ducksalad plant response rating: Flooded Paddy, scale 0 to 100, 0 no effect, 100 complete control; for Plant response rating, Ducksalad: flooded paddy test, scale 0 to 100 (0 no effect, 100 complete control)
Procedure, shortened: as §3

[14] = test system: barnyardgrass (Echinochloa crus-galli); test: Test C flooded paddy test; conditions: for Barnyardgrass plant response rating: Flooded Paddy, scale 0 to 100, 0 no effect, 100 complete control; for Plant response rating, Barnyardgrass: flooded paddy test, scale 0 to 100 (0 no effect, 100 complete control)
Procedure, shortened: as §3

[15] = Rate 125 g/ha, scale 0 to 100, 0 no effect, 100 complete control
[16] = Rate 250 g/ha, scale 0 to 100 (0 no effect, 100 complete control)
[17] = Rate 500 g/ha, scale 0 to 100 (0 no effect, 100 complete control)

CCC(C)c1ccn(C2SCN(c3cccc(OC(F)(F)F)c3)C2=O)n1 (stereo not drawn) [Compound 40]
100: Ducksalad plant response rating ([13]; Rate 250 g/ha) | Ducksalad plant response rating ([13]; Rate 500 g/ha) | Plant response rating, Ducksalad ([13]; Rate 125 g/ha) | Barnyardgrass plant response rating ([14]; Rate 250 g/ha) | Barnyardgrass plant response rating ([14]; Rate 500 g/ha) | Plant response rating, Barnyardgrass ([14]; Rate 62 g/ha) | Plant response rating, Barnyardgrass ([14]; Rate 125 g/ha)
90: Rice plant response rating (rice (Oryza saliva); Rate 500 g/ha) | Plant response rating, Ducksalad ([13]; Rate 62 g/ha)
50: Plant response rating, Pigweed [2, 16] | Plant response rating, Pigweed [2, 17] | Plant response rating, Kochia (kochia (Kochia scoparia); [15]) | Plant response rating, Lambsquarters [10, 16]
70: Plant response rating, Kochia (kochia (Kochia scoparia); [17]) | Plant response rating, Lambsquarters [10, 17] | Plant response rating, Bermudagrass [12, 17] | Rice plant response rating (rice (Oryza saliva); Rate 250 g/ha)
30: Plant response rating, Ragweed, Common [5, 16] | Plant response rating, Corn (corn (Zea mays); [17]) | Plant response rating, Johnsongrass [8, 17]
40: Plant response rating, Ragweed, Common [5, 17] | Plant response rating, Lambsquarters [10, 15] | Plant response rating, Rice (rice (Oryza saliva); Rate 125 g/ha)
60: Plant response rating, Kochia (kochia (Kochia scoparia); [16]) | Plant response rating, Bermudagrass [12, 16]
0: Plant response rating, Crabgrass ([1]; Rate 62 g/ha, scale 0 to 100) | Plant response rating, Crabgrass [1, 15] | Plant response rating, Crabgrass [1, 16] | Plant response rating, Crabgrass [1, 17] | Plant response rating, Pigweed ([2]; Rate 62 g/ha, scale 0 to 100) | Plant response rating, Pigweed [2, 15] | Plant response rating, Nutsedge ([3]; Rate 62 g/ha, scale 0 to 100) | Plant response rating, Nutsedge [3, 15] | Plant response rating, Nutsedge [3, 16] | Plant response rating, Morningglory ([4]; Rate 62 g/ha, scale 0 to 100) | Plant response rating, Morningglory [4, 15] | Plant response rating, Morningglory [4, 16] | Plant response rating, Morningglory [4, 17] | Plant response rating, Ragweed, Common ([5]; Rate 62 g/ha, scale 0 to 100) | Plant response rating, Ragweed, Common [5, 15] | Plant response rating, Soybean (soybean (Glycine max); Rate 62 g/ha, scale 0 to 100) | Plant response rating, Soybean (soybean (Glycine max); [15]) | Plant response rating, Soybean (soybean (Glycine max); [16]) | Plant response rating, Soybean (soybean (Glycine max); [17]) | Plant response rating, Goosegrass ([6]; Rate 62 g/ha, scale 0 to 100) | Plant response rating, Goosegrass [6, 15] | Plant response rating, Goosegrass [6, 16] | Plant response rating, Cocklebur ([7]; Rate 62 g/ha, scale 0 to 100) | Plant response rating, Cocklebur [7, 15] | Plant response rating, Cocklebur [7, 16] | Plant response rating, Cocklebur [7, 17] | Plant response rating, Corn (corn (Zea mays); Rate 62 g/ha, scale 0 to 100) | Plant response rating, Corn (corn (Zea mays); [15]) | Plant response rating, Johnsongrass ([8]; Rate 62 g/ha, scale 0 to 100) | Plant response rating, Johnsongrass [8, 15] | Plant response rating, Velvetleaf ([9]; Rate 62 g/ha, scale 0 to 100) | Plant response rating, Velvetleaf [9, 15] | Plant response rating, Velvetleaf [9, 16] | Plant response rating, Foxtail, Giant ([11]; Rate 62 g/ha, scale 0 to 100) | Plant response rating, Foxtail, Giant [11, 15] | Plant response rating, Foxtail, Giant [11, 16] | Plant response rating, Foxtail, Giant [11, 17] | Plant response rating, Bermudagrass ([12]; Rate 62 g/ha, scale 0 to 100)
20: Plant response rating, Nutsedge [3, 17] | Plant response rating, Kochia (kochia (Kochia scoparia); Rate 62 g/ha, scale 0 to 100) | Plant response rating, Goosegrass [6, 17] | Plant response rating, Corn (corn (Zea mays); [16]) | Plant response rating, Johnsongrass [8, 16] | Plant response rating, Velvetleaf [9, 17] | Plant response rating, Lambsquarters ([10]; Rate 62 g/ha, scale 0 to 100) | Plant response rating, Bermudagrass [12, 15] | Plant response rating, Rice (rice (Oryza saliva); Rate 62 g/ha)
